From US20110046127A1, “Imidazopyridazines for Use as Protein Kinase Inhibitors” (priority 2007, published 2011)

These compounds were tested on T1, PIM-1 or PIM-2 (assay: PIM-1 / PIM-2 biochemical assay (ADP Hunter assay kit)). Details: tested in either the PIM-1 or the PIM-2 biochemical assay (as appropriate); ATP 100 μM.
T1 construct: fused on or other part: C-terminal histidine tag (PIM-1 enzyme); N-terminal histidine tag (PIM-2 enzyme)
Design: species or system human
Description: The biochemical assay to measure PIM-1 activity relies on the ADP Hunter assay kit (DiscoveRx Corp., Cat. # 90-0077), that determines the amount of ADP as direct product of the kinase enzyme activity.
The enzyme has been expressed and purified in-house as a recombinant human protein with a C-terminal histidine tag. The protein is active and stable.
(§1) Assay conditions were as indicated by the kit manufacturers with the following adaptations for the kinase activity step: • Kinase assay buffer and assay volume stay as recommended (15 mM HEPES, pH 7.4, 20 mM NaCl, 1 mM EGTA, 0.02% Tween 20, 10 mM MgCl2 and 0.1 mg/ml bovine γ-globulins/75 μl assay volume) • Incubation time and temperature: 60 min at 30° C. • PIM-1 concentration: 50 pg/μl • ATP concentration: 100 μM • PIM-1 substrate peptide: PIMtide (ARKRRRHPSGPPTA) • Peptide concentration: 60 μM • Positive control for kinase activity inhibition: 1-10 μM Staurosporine • DMSO concentration have to stay below 2% during the kinase reaction
Assays were performed in either 96 or 384-well plates. The final outcome of the coupled reactions provided by the kit is the release of the fluorescent product Resorufin and has been measured with a multilabel HTS counter VICTOR V (PerkinElmer) using an excitation filter at 544 nm and an emission filter at 580 nm.
The biochemical assay to measure PIM-2 activity relies on the ADP Hunter assay kit (DiscoveRx Corp., Cat. # 90-0077), that determines the amount of ADP as direct product of the kinase enzyme activity.
The enzyme has been expressed and purified in-house as a recombinant human protein with a N-terminal histidine tag. The protein is active and stable.
as §1, with “mg/ml bovine γ-globulins/20 μl assay” for “mg/ml bovine γ-globulins/75 μl assay”, “and temperature: 30 min at” for “and temperature: 60 min at”, “C. • PIM-2 concentration: 350” for “C. • PIM-1 concentration: 50”, “PIM-2 concentration: 350 pg/μl •” for “PIM-1 concentration: 50 pg/μl •”, “Peptide concentration: 100 μM •” for “Peptide concentration: 60 μM •”

SMILES | IC50 [nM]
COc1ccc(NC(=O)c2cnc3ccc(NCc4ccc(F)cc4)nn23)cc1 [Example 11, 6-(4-Fluoro-benzylamino)-imidazo[1,2-b]pyridazine-3-carboxylic acid (4-methoxy-phenyl)-amide] | 80
COc1ccc(NC(=O)c2cnc3ccc(NCc4ccco4)nn23)cc1OC [Example 15, 6-[(Furan-2-ylmethyl)-amino]-imidazo[1,2-b]pyridazine-3-carboxylic acid (3,4-dimethoxy-phenyl)-amide] | 4030
O=C(Nc1ccc2[nH]ccc2c1)c1cnc2ccc(NCc3ccc(Cl)c(Cl)c3)nn12 [Example 17, 6-(3,4-Dichloro-benzylamino)-imidazo[1,2-b]pyridazine-3-carboxylic acid (1H-indol-5-yl)-amide] | 430
O=C(Nc1ccccc1)c1cnc2ccc(NCc3ccc(Cl)c(Cl)c3)nn12 [Example 18, 6-(3,4-Dichloro-benzylamino)-imidazo[1,2-b]pyridazine-3-carboxylic acid phenyl-amide] | 60
COCCNC(=O)c1cnc2ccc(NCc3ccc(Cl)c(Cl)c3)nn12 [Example 19, 6-(3,4-Dichloro-benzylamino)-imidazo[1,2-b]pyridazine-3-carboxylic acid (2-methoxy-ethyl)-amide] | 4660
CC(=O)c1cccc(NC(=O)c2cnc3ccc(NCc4ccc(Cl)c(Cl)c4)nn23)c1 [Example 22, 6-(3,4-Dichloro-benzylamino)-imidazo[1,2-b]pyridazine-3-carboxylic acid (3-acetylphenyl)amide] | 33000
O=C(Nc1cccnc1)c1cnc2ccc(NCc3ccc(Cl)c(Cl)c3)nn12 [Example 23, 6-(3,4-Dichloro-benzylamino)-imidazo[1,2-b]pyridazine-3-carboxylic acid pyridin-3-yl-amide] | 130
CCNC(=O)c1cnc2ccc(NCc3ccc(Cl)c(Cl)c3)nn12 [Example 25, 6-(3,4-Dichloro-benzylamino)-imidazo[1,2-b]pyridazine-3-carboxylic acid ethylamide] | 2200
COc1ccc(NC(=O)c2cnc3ccc(NCc4ccc(S(N)(=O)=O)cc4)nn23)cn1 [Example 27] | 1140
O=C(O)c1ccc(NC(=O)c2cnc3ccc(NCc4ccc(Cl)c(Cl)c4)nn23)cc1 [Example 29, 4-{[6-(3,4-Dichloro-benzylamino)-imidazo[1,2-b]pyridazine-3-carbonyl]-amino}-benzoic acid] | 260
COc1ccc(CNc2ccc3ncc(C(=O)Nc4ccc(C(=O)O)cc4)n3n2)cc1 [Example 30] | 380
COc1ccc(CNc2ccc3ncc(C(=O)Nc4cccc(C(=O)O)c4)n3n2)cc1 [Example 31, 3-{[6-(4-Methoxy-benzylamino)-imidazo[1,2-b]pyridazine-3-carbonyl]-amino}-benzoic acid] | 7380
O=C(Nc1ccc(O)cc1)c1cnc2ccc(NCc3ccc(F)cc3)nn12 [Example 32, 6-(4-Fluoro-benzylamino)-imidazo[1,2-b]pyridazine-3-carboxylic acid (4-hydroxy-phenyl)-amide] | 70
O=C(Nc1ccccc1)c1cnc2ccc(OCc3ccccc3)nn12 [Example 34, 6-Benzyloxy-imidazo[1,2-b]pyridazine-3-carboxylic acid phenylamide] | 11000
O=C(Nc1ccccc1)c1cnc2ccc(Oc3ccccc3)nn12 [Example 35, 6-Phenoxy-imidazo[1,2-b]pyridazine-3-carboxylic acid phenylamide] | 120
O=C(Nc1ccccc1)c1cnc2ccc(Oc3ccc(F)cc3)nn12 [Example 36] | 2260
O=C(Nc1ccccc1)c1cnc2ccc(-n3cccc3)nn12 [Example 37, 6-Pyrrol-1-yl-imidazo[1,2-b]pyridazine-3-carboxylic acid phenylamide] | 530
O=C(Nc1ccccc1)c1cnc2ccc(-n3ccnc3)nn12 [Example 38, 6-Imidazol-1-yl-imidazo[1,2-b]pyridazine-3-carboxylic acid phenylamide] | 4630

SMILES | IC50 [nM]
O=C(Nc1ccccc1)c1cnc2ccc(Nc3ccccc3)nn12 [Example 39, 6-Phenylamino-imidazo[1,2-b]pyridazine-3-carboxylic acid phenylamide] | 40
O=C(Nc1ccccc1)c1cnc2ccc(Nc3cccnc3)nn12 [Example 41, 6-(Pyridin-3-ylamino)-imidazo[1,2-b]pyridazine-3-carboxylic acid phenyl-amide] | 60
CN(Cc1ccc(Cl)c(Cl)c1)c1ccc2ncc(C(=O)Nc3ccccc3)n2n1 [Example 42, 6-[(3,4-Dichloro-benzyl)-methyl-amino]-imidazo[1,2-b]pyridazine-3-carboxylic acid phenylamide] | 60
O=C(Nc1ccccc1)c1cnc2ccc(N3Cc4ccccc4C3)nn12 [Example 44, 6-(1,3-Dihydro-isoindol-2-yl)-imidazo[1,2-b]pyridazine-3-carboxylic acid phenylamide] | 180
O=C(Nc1ccccc1)c1cnc2ccc(-c3ccccc3)nn12 [Example 45, 6-Phenyl-imidazo[1,2-b]pyridazine-3-carboxylic acid phenylamide] | 490
COc1ccc(-c2ccc3ncc(C(=O)Nc4ccccc4)n3n2)cc1 [Example 46, 6-(4-Methoxy-phenyl)-imidazo[1,2-b]pyridazine-3-carboxylic acid phenyl-amide] | 380
O=C(Nc1ccccc1)c1cnc2ccc(-c3ccoc3)nn12 [Example 47, 6-Furan-3-yl-imidazo[1,2-b]pyridazine-3-carboxylic acid phenylamide] | 470
Clc1ccc(CNc2ccc3ncc(CN4CCOCC4)n3n2)cc1Cl [Example 53, (3,4-Dichloro-benzyl)-(3-morpholin-4-ylmethyl-imidazo[1,2-b]pyridazin-6-yl)-amine] | 33000
Cc1cc(NCc2ccc(Cl)c(Cl)c2)nn2c(C(=O)Nc3ccccc3)cnc12 [Example 54, 6-(3,4-Dichloro-benzylamino)-8-methyl-imidazo[1,2-b]pyridazine-3-carboxylic acid phenylamide] | 70
Cc1cc2ncc(C(=O)Nc3ccccc3)n2nc1NCc1ccc(Cl)c(Cl)c1 [Example 55, 6-(3,4-Dichloro-benzylamino)-7-methyl-imidazo[1,2-b]pyridazine-3-carboxylic acid phenylamide] | 70
Cc1cc2ncc(C(=O)Nc3ccccc3)n2nc1NCc1ccco1 [Example 58, 6-[(Furan-2-ylmethyl)-amino]-7-methyl-imidazo[1,2-b]pyridazine-3-carboxylic acid phenylamide] | 300
Cc1ccc(CNc2nn3c(C(=O)Nc4ccccc4)cnc3cc2C)cc1F [Example 60, 6-(3-Fluoro-4-methyl-benzylamino)-7-methyl-imidazo[1,2-b]pyridazine-3-carboxylic acid phenylamide] | 60
Cc1cc2ncc(C(=O)Nc3ccccc3)n2nc1NCc1cccc(F)c1 [Example 61, 6-(3-Fluoro-benzylamino)-7-methyl-imidazo[1,2-b]pyridazine-3-carboxylic acid phenylamide] | 60
CCOC(=O)c1cccc(NC(=O)c2cnc3c(C)cc(NCc4ccc(OC)cc4)nn23)c1 [Example 64, 3-{[6-(4-Methoxy-benzylamino)-8-methyl-imidazo[1,2-b]pyridazine-3-carbonyl]-amino}-benzoic acid ethyl ester] | 160
COc1ccc(CNc2cc(C)c3ncc(C(=O)Nc4cccc(C(=O)O)c4)n3n2)cc1 [Example 65, 3-{[6-(4-Methoxy-benzylamino)-8-methyl-imidazo[1,2-b]pyridazine-3-carbonyl]-amino}-benzoic acid] | 19300
CNC(=O)c1cccc(NC(=O)c2cnc3c(C)cc(NCc4ccc(OC)cc4)nn23)c1 [Example 66, 6-(4-Methoxy-benzylamino)-8-methyl-imidazo[1,2-b]pyridazine-3-carboxylic acid (3-methylcarbamoyl-phenyl)-amide] | 3130
O=C(Nc1ccccc1)c1cnc2cc(C3CCCC3)c(NCc3ccc(F)cc3)nn12 [Example 68, 7-Cyclopentyl-6-(4-fluoro-benzylamino)-imidazo[1,2-b]pyridazine-3-carboxylic acid phenylamide] | 80
COc1ccc(CNc2nn3c(C(=O)Nc4ccccc4)cnc3cc2C2CCCC2)cc1 [Example 69, 7-Cyclopentyl-6-(4-methoxy-benzylamino)-imidazo[1,2-b]pyridazine-3-carboxylic acid phenylamide] | 190
